{
  "source": "patent US20240148822A1",
  "about": "“ASSOCIATIONS OF FOSFOMYCIN AND COLISTIN FOR USE AGAINST BIOFILM-ASSOCIATED BACTERIAL INFECTIONS” (priority 2021, published 2024)",
  "type_in_all_cases": "cell-based",
  "key": {"[1]": {"system": "K. pneumoniae preformed biofilms", "test": "Biofilm susceptibility testing (Nunc-TSP lid system), MBEC", "conditions": "24 h exposure", "description": "(§1) Fosfomycin and colistin Minimum Biofilm Eradication Concentrations (MBECs) were determined as previously described (Macia et al, mentioned above), with MBEC being defined as the lowest concentration of antibiotic that prevented visible bacterial growth in the recovery medium."}, "[2]": {"system": "P. aeruginosa preformed biofilms", "test": "Biofilm susceptibility testing (Nunc-TSP lid system), MBEC", "conditions": "24 h exposure", "description": "as §1"}, "[3]": {"system": "S. maltophilia preformed biofilms", "test": "Biofilm susceptibility testing (Nunc-TSP lid system), MBEC", "conditions": "24 h exposure", "description": "as §1"}, "[4]": {"system": "A. baumannii preformed biofilms", "test": "Biofilm susceptibility testing (Nunc-TSP lid system), MBEC", "conditions": "24 h exposure", "description": "as §1"}, "S. maltophilia [5]": {"system": "S. maltophilia", "test": "Fosfomycin MIC, agar dilution method (CLSI)", "conditions": "Stenotrophomonas maltophilia", "description": "(§2) Antimicrobial susceptibility testing was performed according to Clinical and Laboratory Standard Institute guidelines [CLSI_M07 2018, CLSI_M100 2020]. In particular, colistin MICs were determined by the broth microdilution method, and fosfomycin MICs by the agar dilution method (with the addition of 25 μg/ml of glucose-6-phosphate, as recommended). […] and P. aeruginosa ATCC 27853 were used for quality control purposes."}, "K. pneumoniae [6]": {"system": "K. pneumoniae", "test": "Fosfomycin MIC, agar dilution method (CLSI)", "conditions": "Klebsiella pneumoniae", "description": "as §2"}, "A. baumannii [7]": {"system": "A. baumannii", "test": "Fosfomycin MIC, agar dilution method (CLSI)", "conditions": "Acinetobacter baumannii", "description": "as §2"}, "P. aeruginosa [8]": {"system": "P. aeruginosa", "test": "Fosfomycin MIC, agar dilution method (CLSI)", "conditions": "Pseudomonas aeruginosa", "description": "as §2"}, "[9]": {"system": "all tested strains (Gram-negative clinical isolates)", "test": "Fosfomycin MIC, agar dilution, summary over all tested strains", "description": "as §2"}, "S. maltophilia [10]": {"system": "S. maltophilia", "test": "Colistin MIC, broth microdilution method (CLSI)", "description": "as §2"}, "K. pneumoniae [11]": {"system": "K. pneumoniae", "test": "Colistin MIC, broth microdilution method (CLSI)", "description": "as §2"}, "A. baumannii [12]": {"system": "A. baumannii", "test": "Colistin MIC, broth microdilution method (CLSI)", "description": "as §2"}, "P. aeruginosa [13]": {"system": "P. aeruginosa", "test": "Colistin MIC, broth microdilution method (CLSI)", "description": "as §2"}, "[14]": {"system": "all tested strains (preformed biofilms)", "test": "MBEC, summary over all tested strains", "conditions": "colistin", "description": "as §1"}, "[15]": {"system": "all tested strains (Gram-negative clinical isolates)", "test": "Colistin MIC, broth microdilution, summary over all tested strains", "description": "as §2"}, "[16]": {"conditions": "strain FZ103, preformed biofilm"}, "[17]": {"conditions": "strain FZ105, preformed biofilm"}, "[18]": {"conditions": "strain FZ106, preformed biofilm"}, "[19]": {"conditions": "strain FZ108, preformed biofilm"}, "[20]": {"conditions": "strain FZ141, preformed biofilm"}, "[21]": {"conditions": "strain FZ139, preformed biofilm"}},
  "data": [
    {"compound": "C[C@@H]1O[C@@H]1P(=O)(O)O", "note": "[Fosfomycin, fosfomycin]", "values": [
      {"measurement": "Fosfomycin MBEC", "setting": "[1]; strain FZ80, preformed biofilm", "value": ">1024", "unit": "µg/mL"},
      {"measurement": "Fosfomycin MBEC", "setting": "[1]; [16]", "value": ">1024", "unit": "µg/mL"},
      {"measurement": "Fosfomycin MBEC", "setting": "[1]; [17]", "value": ">1024", "unit": "µg/mL"},
      {"measurement": "Fosfomycin MBEC", "setting": "[1]; [18]", "value": ">1024", "unit": "µg/mL"},
      {"measurement": "Fosfomycin MBEC", "setting": "[1]; [19]", "value": ">1024", "unit": "µg/mL"},
      {"measurement": "Fosfomycin MBEC", "setting": "[1]; [20]", "value": 4, "unit": "µg/mL"},
      {"measurement": "Fosfomycin MBEC", "setting": "[2]; strain FZ18, preformed biofilm", "value": ">1024", "unit": "µg/mL"},
      {"measurement": "Fosfomycin MBEC", "setting": "[2]; strain FZ34, preformed biofilm", "value": ">1024", "unit": "µg/mL"},
      {"measurement": "Fosfomycin MBEC", "setting": "[2]; strain FZ45, preformed biofilm", "value": ">1024", "unit": "µg/mL"},
      {"measurement": "Fosfomycin MBEC", "setting": "[2]; strain FZ98, preformed biofilm", "value": ">1024", "unit": "µg/mL"},
      {"measurement": "Fosfomycin MBEC", "setting": "[2]; [21]", "value": ">1024", "unit": "µg/mL"},
      {"measurement": "Fosfomycin MBEC", "setting": "[3]; strain FZ6, preformed biofilm", "value": ">1024", "unit": "µg/mL"},
      {"measurement": "Fosfomycin MBEC", "setting": "[3]; strain FZ8, preformed biofilm", "value": ">1024", "unit": "µg/mL"},
      {"measurement": "Fosfomycin MBEC", "setting": "[3]; strain FZ85, preformed biofilm", "value": ">1024", "unit": "µg/mL"},
      {"measurement": "Fosfomycin MBEC", "setting": "[4]; strain FZ1, preformed biofilm", "value": ">1024", "unit": "µg/mL"},
      {"measurement": "Fosfomycin MBEC", "setting": "[4]; strain FZ2, preformed biofilm", "value": ">1024", "unit": "µg/mL"},
      {"measurement": "Fosfomycin MBEC", "setting": "[4]; strain FZ83, preformed biofilm", "value": ">1024", "unit": "µg/mL"},
      {"measurement": "MIC", "setting": "S. maltophilia [5]; strain FZ6", "value": 64, "unit": "µg/mL"},
      {"measurement": "MIC", "setting": "S. maltophilia [5]; strain FZ8", "value": 128, "unit": "µg/mL"},
      {"measurement": "MIC", "setting": "S. maltophilia [5]; strain FZ85", "value": 32, "unit": "µg/mL"},
      {"measurement": "MIC", "setting": "K. pneumoniae [6]; strain FZ80", "value": 128, "unit": "µg/mL"},
      {"measurement": "MIC", "setting": "K. pneumoniae [6]; strain FZ103", "value": 32, "unit": "µg/mL"},
      {"measurement": "MIC", "setting": "K. pneumoniae [6]; strain FZ105", "value": 16, "unit": "µg/mL"},
      {"measurement": "MIC", "setting": "K. pneumoniae [6]; strain FZ106", "value": 64, "unit": "µg/mL"},
      {"measurement": "MIC", "setting": "K. pneumoniae [6]; strain FZ108", "value": 128, "unit": "µg/mL"},
      {"measurement": "MIC", "setting": "K. pneumoniae [6]; strain FZ141", "value": "≤ 0.25", "unit": "µg/mL"},
      {"measurement": "MIC", "setting": "A. baumannii [7]; strain FZ1", "value": 512, "unit": "µg/mL"},
      {"measurement": "MIC", "setting": "A. baumannii [7]; strain FZ2", "value": "> 1020", "unit": "µg/mL"},
      {"measurement": "MIC", "setting": "A. baumannii [7]; strain FZ83", "value": 64, "unit": "µg/mL"},
      {"measurement": "MIC", "setting": "P. aeruginosa [8]; strain FZ18", "value": 64, "unit": "µg/mL"},
      {"measurement": "MIC", "setting": "P. aeruginosa [8]; strain FZ34", "value": "> 1020", "unit": "µg/mL"},
      {"measurement": "MIC", "setting": "P. aeruginosa [8]; strain FZ45", "value": "> 1020", "unit": "µg/mL"},
      {"measurement": "MIC", "setting": "P. aeruginosa [8]; strain FZ98", "value": 64, "unit": "µg/mL"},
      {"measurement": "MIC", "setting": "P. aeruginosa [8]; strain FZ139", "value": 8, "unit": "µg/mL"},
      {"measurement": "MIC50", "setting": "[9]", "value": 64, "unit": "μs/m1"},
      {"measurement": "MIC90", "setting": "[9]", "value": "> 1024", "unit": "μs/ml"}
    ]},
    {"compound": "colistin", "values": [
      {"measurement": "Colistin MIC", "setting": "S. maltophilia [10]; strain FZ6", "value": 4, "unit": "µg/mL"},
      {"measurement": "Colistin MIC", "setting": "S. maltophilia [10]; strain FZ8", "value": 4, "unit": "µg/mL"},
      {"measurement": "Colistin MIC", "setting": "S. maltophilia [10]; strain FZ85", "value": 16, "unit": "µg/mL"},
      {"measurement": "Colistin MIC", "setting": "K. pneumoniae [11]; strain FZ80", "value": 0.5, "unit": "µg/mL"},
      {"measurement": "Colistin MIC", "setting": "K. pneumoniae [11]; strain FZ103", "value": 8, "unit": "µg/mL"},
      {"measurement": "Colistin MIC", "setting": "K. pneumoniae [11]; strain FZ105", "value": 128, "unit": "µg/mL"},
      {"measurement": "Colistin MIC", "setting": "K. pneumoniae [11]; strain FZ106", "value": 32, "unit": "µg/mL"},
      {"measurement": "Colistin MIC", "setting": "K. pneumoniae [11]; strain FZ108", "value": 32, "unit": "µg/mL"},
      {"measurement": "Colistin MIC", "setting": "K. pneumoniae [11]; strain FZ141", "value": 2, "unit": "µg/mL"},
      {"measurement": "Colistin MIC", "setting": "A. baumannii [12]; strain FZ1", "value": 0.5, "unit": "µg/mL"},
      {"measurement": "Colistin MIC", "setting": "A. baumannii [12]; strain FZ2", "value": 1, "unit": "µg/mL"},
      {"measurement": "Colistin MIC", "setting": "A. baumannii [12]; strain FZ83", "value": 8, "unit": "µg/mL"},
      {"measurement": "Colistin MIC", "setting": "P. aeruginosa [13]; strain FZ18", "value": 4, "unit": "µg/mL"},
      {"measurement": "Colistin MIC", "setting": "P. aeruginosa [13]; strain FZ34", "value": 4, "unit": "µg/mL"},
      {"measurement": "Colistin MIC", "setting": "P. aeruginosa [13]; strain FZ45", "value": 4, "unit": "µg/mL"},
      {"measurement": "Colistin MIC", "setting": "P. aeruginosa [13]; strain FZ98", "value": 512, "unit": "µg/mL"},
      {"measurement": "Colistin MIC", "setting": "P. aeruginosa [13]; strain FZ139", "value": 4, "unit": "µg/mL"},
      {"measurement": "Colistin MBEC", "setting": "[1]; strain FZ80, preformed biofilm", "value": 64, "unit": "µg/mL"},
      {"measurement": "Colistin MBEC", "setting": "[1]; [16]", "value": 64, "unit": "µg/mL"},
      {"measurement": "Colistin MBEC", "setting": "[1]; [17]", "value": 256, "unit": "µg/mL"},
      {"measurement": "Colistin MBEC", "setting": "[1]; [18]", "value": 256, "unit": "µg/mL"},
      {"measurement": "Colistin MBEC", "setting": "[1]; [19]", "value": ">1024", "unit": "µg/mL"},
      {"measurement": "Colistin MBEC", "setting": "[1]; [20]", "value": 8, "unit": "µg/mL"},
      {"measurement": "Colistin MBEC", "setting": "[2]; strain FZ18, preformed biofilm", "value": ">1024", "unit": "µg/mL"},
      {"measurement": "Colistin MBEC", "setting": "[2]; strain FZ34, preformed biofilm", "value": ">1024", "unit": "µg/mL"},
      {"measurement": "Colistin MBEC", "setting": "[2]; strain FZ45, preformed biofilm", "value": ">1024", "unit": "µg/mL"},
      {"measurement": "Colistin MBEC", "setting": "[2]; strain FZ98, preformed biofilm", "value": ">1024", "unit": "µg/mL"},
      {"measurement": "Colistin MBEC", "setting": "[2]; [21]", "value": ">1024", "unit": "µg/mL"},
      {"measurement": "Colistin MBEC", "setting": "[3]; strain FZ6, preformed biofilm", "value": ">1024", "unit": "µg/mL"},
      {"measurement": "Colistin MBEC", "setting": "[3]; strain FZ8, preformed biofilm", "value": ">1024", "unit": "µg/mL"},
      {"measurement": "Colistin MBEC", "setting": "[3]; strain FZ85, preformed biofilm", "value": ">1024", "unit": "µg/mL"},
      {"measurement": "Colistin MBEC", "setting": "[4]; strain FZ1, preformed biofilm", "value": 64, "unit": "µg/mL"},
      {"measurement": "Colistin MBEC", "setting": "[4]; strain FZ2, preformed biofilm", "value": ">1024", "unit": "µg/mL"},
      {"measurement": "Colistin MBEC", "setting": "[4]; strain FZ83, preformed biofilm", "value": 128, "unit": "µg/mL"},
      {"measurement": "MBEC50", "setting": "[14]", "value": 512, "unit": "µg/mL"},
      {"measurement": "MIC50", "setting": "[15]", "value": 4, "unit": "μs/ml"},
      {"measurement": "MIC90", "setting": "[15]", "value": 32, "unit": "μs/ml"}
    ]}
  ]
}
